Experimental data taken from patent US9975860B2, “Anti-angiogenic compounds” (UNIVERSITY COLLEGE DUBLIN—NATIONAL UNIVERSITY OF IRELAND, …, priority 2014, dated 2018).

Key:
Type in all cases: cell-based, human
[1] = system: HT29-LUC radioresistant colorectal adenocarcinoma cells; experiment: Seahorse OCR (oxidative phosphorylation) in HT29-LUC; settings: 10 μM, 24 hours, p<0.01
Procedure: (§1) HT29-LUC radioresistant colorectal adenocarcinoma cells were used to test the effects of the compound 4 on oxidative phosphorylation. Cells were maintained in McCoy's 5A media supplemented with 10% foetal calf serum. A total of 20,000 cells, in 100 μl media, were seeded per well in 24 well plates and left to incubate for 24 hours, with an additional 150 μl media added after 5 hours. The media was replaced with solutions containing 10 μM of compound 4 or the equivalent volume of DMSO vehicle control. After 24 hours of treatment, media was replaced with modified DMEM supplemented with 0.5 mM glucose. Rates of oxidative phosphorylation were determined using Seahorse Biosciences metabolism technology. The media was disposed and the cells washed with PBS. The cells were fixed with 1% glutaraldehyde for 15 minutes and then stained with crystal violet for 30 minutes. The plates were blotted and dried overnight. The cells were resuspended with 1% TritonX-100 and shaken for 15 minutes. The absorbance was read on a spectrophotometer at 595 nm Rates of oxidative phosphorylation were then normalised to cell number.

[2] = system: HT29-LUC radioresistant colorectal adenocarcinoma cells; experiment: Seahorse ECAR (glycolysis) in HT29-LUC; settings: 10 μM, 24 hours
Procedure: as §1, with “of” for “of the”, “glycolysis.” for “oxidative phosphorylation.”, “glycolysis” for “oxidative phosphorylation”

PARP1 [3] = experiment: qPCR DNA repair gene expression in OE33R: PARP1; settings: 10 μM, 24 hours
Procedure: (§2) OE33P radiosensitive oesophageal adenocarcinoma cells and OE33R radioresistant oesophageal adenocarcinoma cells were used to test the effects of the compound 4 on DNA repair gene expression. Cells were maintained in RPMI media supplemented with 10% foetal calf serum, penicillin (100 U/ml) and streptomycin (100 μg/ml). A total of 300,000 cells, in 2 ml media, were seeded per well in 6 well plates and left to incubate for 24 hours. The media was replaced with solutions containing 10 μM of compound 4 or the equivalent volume of DMSO vehicle control. After 24 hours of treatment, RNA was extracted from the cells and converted to cDNA. qPCR was then conducted and expression of MMS19, SMUG1 PARP1 and MLH1 was quantified, […]

SMUG1 [4] = experiment: qPCR DNA repair gene expression in OE33P: SMUG1; settings: 10 μM, 24 hours
Procedure: as §2

MMS19 [5] = experiment: qPCR DNA repair gene expression in OE33R: MMS19; settings: 10 μM, 24 hours
Procedure: as §2

[6] = system: OE33R radioresistant oesophageal adenocarcinoma cells; experiment: Seahorse OCR (oxidative phosphorylation) in OE33R; settings: 10 μM, 24 hours, p<0.05
Procedure: as §1, with “OE33P radiosensitive and OE33R” for “HT29-LUC”, “oesophageal” for “colorectal”, “RPMI” for “McCoy's 5A”, “serum, penicillin (100 U/ml) and streptomycin (100 μg/ml).” for “serum.”, “11,000 OE33P cells and 13,000 OE33R” for “20,000”

[7] = system: OE33P radiosensitive oesophageal adenocarcinoma cells; experiment: Seahorse ECAR (glycolysis) in OE33P; settings: 10 μM, 24 hours
Procedure: (§3) OE33P radiosensitive oesophageal adenocarcinoma cells and OE33R radioresistant oesophageal adenocarcinoma cells were used to test the effects of the compound 4 on glycolysis. Cells were maintained in RPMI media supplemented with 10% foetal calf serum, penicillin (100 U/ml) and streptomycin (100 μg/ml). A total of 11,000 cells (OE33P) or 13,000 cells (OE33R), in 100 μl media, were seeded per well in 24 well plates and left to incubate for 24 hours, with an additional 150 μl media added after 5 hours. The media was replaced with solutions containing 10 μM of compound 4 or the equivalent volume of DMSO vehicle control. After 24 hours of treatment, media was replaced with modified DMEM supplemented with 0.5 mM glucose. Rates of glycolysis were determined using Seahorse Biosciences metabolism technology. The media was disposed and the cells washed with PBS. The cells were fixed with 1% glutaraldehyde for 15 minutes and then stained with crystal violet for 30 minutes. The plates were blotted and dried overnight. The cells were resuspended with 1% TritonX-100 and shaken for 15 minutes. The absorbance was read on a spectrophotometer at 595 nm Rates of glycolysis were then normalised to cell number.

MMS19 [8] = experiment: qPCR DNA repair gene expression in OE33P: MMS19; settings: 10 μM, 24 hours, p<0.01
Procedure: as §2

MLH1 [9] = experiment: qPCR DNA repair gene expression in HT29-LUC: MLH1; settings: 10 μM, 24 hours, p<0.01
Procedure: HT29-LUC radioresistant colorectal adenocarcinoma cells were used to test the effects of the compound 4 on DNA repair gene expression. Cells were maintained in McCoy's 5A media supplemented with 10% foetal calf serum. A total of 300,000 cells, in 2 ml media, were seeded per well in 6 well plates and left to incubate for 24 hours. The media was replaced with solutions containing 10 μM of compound 4 or the equivalent volume of DMSO vehicle control. After 24 hours of treatment, RNA was extracted from the cells and converted to cDNA. qPCR was then conducted.

[10] = system: OE33R radioresistant oesophageal adenocarcinoma cells; experiment: Seahorse ECAR (glycolysis) in OE33R; settings: 10 μM, 24 hours
Procedure: as §3

SMUG1 [11] = experiment: qPCR DNA repair gene expression in OE33R: SMUG1; settings: 10 μM, 24 hours
Procedure: as §2

MLH1 [12] = experiment: qPCR DNA repair gene expression in OE33P: MLH1; settings: 10 μM, 24 hours, p<0.05
Procedure: as §2

PARP1 [13] = experiment: qPCR DNA repair gene expression in OE33P: PARP1; settings: 10 μM, 24 hours
Procedure: as §2

## Cl.Oc1ccccc1/C=C/c1cnccn1 [Compound 4, (E)-2-[2-(Pyrazin-2-yl)vinyl]phenol hydrochloride]
[1]
  oxygen consumption rate (OCR), a measure of oxidative phosphorylation: significantly reduces oxygen consumption rate
[2]
  extracellular acidification rate (ECAR), a measure of glycolysis: does not significantly reduce extraceullar acidification rate
PARP1 [3]
  expression of PARP1 (qPCR): not significantly different to control
SMUG1 [4]
  expression of SMUG1 (qPCR): not significantly different to control
MMS19 [5]
  expression of MMS19 (qPCR): not significantly different to control
[6]
  oxygen consumption rate (OCR), a measure of oxidative phosphorylation: does significantly reduce OCR
[7]
  extracellular acidification rate (ECAR), a measure of glycolysis: does not significantly reduce extraceullar acidification rate
MMS19 [8]
  expression of MMS19 (qPCR): significantly reduces the expression of MMS19
MLH1 [9]
  expression of MLH1 (qPCR): significantly reduces the expression of MLH1
[10]
  extracellular acidification rate (ECAR), a measure of glycolysis: does not significantly reduce extraceullar acidification rate
SMUG1 [11]
  expression of SMUG1 (qPCR): not significantly different to control
MLH1 [12]
  expression of MLH1 (qPCR): significantly reduces
PARP1 [13]
  expression of PARP1 (qPCR): not significantly different to control
